BindingDB's records for doi:10.1016/S0960-894X(00)80413-8 (1992)
pIC50: −log10 of the molar value.

molecular target: Ribose-phosphate pyrophosphokinase (Escherichia coli) (UniProt P0A717); test: Inhibitory concentration against Escherichia coli Pyrophosphate Synthetase (PRPP)
Sequence (P0A717 whole entry, looked up): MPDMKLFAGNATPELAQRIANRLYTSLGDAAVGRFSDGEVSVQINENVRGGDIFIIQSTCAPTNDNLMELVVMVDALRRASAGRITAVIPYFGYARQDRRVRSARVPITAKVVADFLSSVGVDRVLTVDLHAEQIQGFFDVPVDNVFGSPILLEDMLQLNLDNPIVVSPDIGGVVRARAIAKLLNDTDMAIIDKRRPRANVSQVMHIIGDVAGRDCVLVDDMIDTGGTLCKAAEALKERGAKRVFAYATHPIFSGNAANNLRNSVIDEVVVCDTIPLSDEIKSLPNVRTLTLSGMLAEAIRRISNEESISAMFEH

pIC50 | Compound
2.29 | Nc1ncnc2c1ncn2[C@@H]1O[C@H](COP(=O)(O)O)[C@H](O)[C@@H]1O [Phosphoric acid mono-[(2R,3R,4S,5R)-5-(6-amino-purin-9-yl)-3,4-dihydroxy-tetrahydro-furan-2-ylmethyl] ester]
3.22 | Nc1ncnc2c1ncn2[C@H]1CC[C@@H](CCOP(=O)(O)O)C1 [Phosphoric acid mono-{2-[(1R,3S)-3-(6-amino-purin-9-yl)-cyclopentyl]-ethyl} ester]
3.00 | Nc1ncnc2c1ncn2[C@H]1CC[C@@H](CC(F)(F)P(=O)(O)O)C1 [{2-[(1R,3S)-3-(6-Amino-purin-9-yl)-cyclopentyl]-1,1-difluoro-ethyl}-phosphonic acid]

Compound | pIC50
Nc1ncnc2c1ncn2CCOCP(=O)(O)O [9-[2-phosphonomethoxyethyl]adenine] | 2.49
